This experiment has as its system human PBMC cytotoxicity, % cell control. The experiment is described as follows: human PBMC cytotoxicity, dose response, cytotoxicity control for HIV-1 antiviral lead project, cell-based, primary PBMCs, TC50 (AID 504530).
On to `Cc1c2c(=O)n(-c3nc4ccccc4s3)nc-2cc(O)n1CCc1cccs1`, for which the CC50 (as a rule, the concentration at which the toxic effect on the cells reaches its halfway point) is 71.2 µM.

Regarding `COc1ccc(Cn2c(O)cc3nn(-c4nc5ccccc5s4)c(=O)c-3c2C)cc1`, the CC50 was 19.2 µM.

Consider `Cc1c2c(=O)n(-c3nc4ccccc4s3)nc-2cc(O)n1Cc1ccc(F)cc1`, for which the CC50 was 18.7 µM.

Consider `COc1ccccc1Cn1c(O)cc2nn(-c3nc4ccccc4s3)c(=O)c-2c1C`, for which the CC50 was 22 µM.

Consider `Cc1c2c(=O)n(-c3nc4ccccc4s3)nc-2cc(O)n1Cc1ccncc1`, for which the CC50 is 2.4 µM.

As for `Cc1c2c(=O)n(-c3nc4ccccc4s3)nc-2cc(O)n1Cc1cccs1`, the CC50 is 25.7 µM.

Take `Cc1c2c(=O)n(-c3nc4ccccc4s3)nc-2cc(O)n1Cc1ccccc1Cl`: the CC50 is 38.9 µM.

On to `COc1ccc(CCn2c(O)cc3nn(-c4nc5ccccc5s4)c(=O)c-3c2C)cc1`, for which the half-maximal cytotoxic concentration (CC50) was 60 µM.

For the compound `Cc1c2c(=O)n(-c3nc4ccccc4s3)nc-2cc(O)n1C1CC1`, the CC50 is 2.6 µM.

Regarding `Cc1c2c(=O)n(-c3nc4ccccc4s3)nc-2cc(O)n1Cc1cccnc1`, the CC50 is 2.15 µM.

Consider `Cc1c2c(=O)n(-c3nc4ccccc4s3)nc-2cc(O)n1CCc1ccc(O)cc1`, for which the CC50 was 2.11 µM.

Turning to `Cc1c2c(=O)n(-c3nc4ccccc4s3)nc-2cc(O)n1CCC(C)C`, the CC50 is 41.1 µM.
